In PMC12586182 (Frontiers in Oncology, 2025):

Legend:
Test in all cases: Kinase panel profiling at 1 µmol/L (mobility shift assay, Carna)
Assay type in all cases: biochemical
Conditions in all cases: 1 µmol/L of BTK inhibitor
[1] = molecular target: T1, HIPK4 (Homo sapiens, UniProt Q8NE63)
T1 construct: purchased Carna Biosciences
T1 sequence (Q8NE63 1-616): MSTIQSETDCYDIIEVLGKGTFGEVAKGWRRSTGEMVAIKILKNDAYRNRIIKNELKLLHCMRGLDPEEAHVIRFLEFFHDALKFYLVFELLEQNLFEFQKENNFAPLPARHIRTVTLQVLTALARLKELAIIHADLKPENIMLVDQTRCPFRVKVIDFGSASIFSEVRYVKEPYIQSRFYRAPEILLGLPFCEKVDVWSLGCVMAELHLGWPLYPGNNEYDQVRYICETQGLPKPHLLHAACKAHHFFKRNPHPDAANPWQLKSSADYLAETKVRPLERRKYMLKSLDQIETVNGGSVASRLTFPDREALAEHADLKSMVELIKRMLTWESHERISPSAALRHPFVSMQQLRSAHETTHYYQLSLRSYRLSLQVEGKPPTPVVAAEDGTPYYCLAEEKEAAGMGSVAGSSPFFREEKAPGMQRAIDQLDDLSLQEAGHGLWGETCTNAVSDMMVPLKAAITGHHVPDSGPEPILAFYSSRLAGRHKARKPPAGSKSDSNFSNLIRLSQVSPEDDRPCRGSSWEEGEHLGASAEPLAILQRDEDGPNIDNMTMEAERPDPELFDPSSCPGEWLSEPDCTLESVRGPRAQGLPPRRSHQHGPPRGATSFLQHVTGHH

[2] = molecular target: T2, DDR2 (Homo sapiens, UniProt Q16832)
T2 construct: purchased Carna Biosciences
T2 sequence (Q16832 22-855): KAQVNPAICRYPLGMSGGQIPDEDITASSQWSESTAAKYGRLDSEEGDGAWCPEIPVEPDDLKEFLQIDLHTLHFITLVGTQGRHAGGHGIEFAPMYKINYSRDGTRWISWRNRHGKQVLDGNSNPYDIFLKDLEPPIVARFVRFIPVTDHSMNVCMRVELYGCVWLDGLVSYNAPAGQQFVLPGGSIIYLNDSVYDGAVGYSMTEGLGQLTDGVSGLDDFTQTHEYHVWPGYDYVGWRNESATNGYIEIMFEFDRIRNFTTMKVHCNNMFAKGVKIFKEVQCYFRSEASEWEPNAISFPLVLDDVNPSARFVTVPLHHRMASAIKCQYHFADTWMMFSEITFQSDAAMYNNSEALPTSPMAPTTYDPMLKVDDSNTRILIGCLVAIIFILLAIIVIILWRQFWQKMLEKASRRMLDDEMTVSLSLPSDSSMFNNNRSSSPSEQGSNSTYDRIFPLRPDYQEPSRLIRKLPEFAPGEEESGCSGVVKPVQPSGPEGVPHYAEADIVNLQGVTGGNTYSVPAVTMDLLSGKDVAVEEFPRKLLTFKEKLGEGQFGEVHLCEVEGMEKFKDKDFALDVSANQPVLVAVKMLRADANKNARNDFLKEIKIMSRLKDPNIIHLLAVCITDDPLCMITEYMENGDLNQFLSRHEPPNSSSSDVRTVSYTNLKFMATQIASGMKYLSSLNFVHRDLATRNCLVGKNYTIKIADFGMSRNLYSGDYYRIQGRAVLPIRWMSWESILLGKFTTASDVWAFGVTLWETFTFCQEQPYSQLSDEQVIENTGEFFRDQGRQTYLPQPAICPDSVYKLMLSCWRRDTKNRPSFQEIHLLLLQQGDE

[3] = molecular target: T3, IGF1R (Homo sapiens, UniProt P08069)
T3 construct: purchased Carna Biosciences

[4] = molecular target: T4, PDGFRβ (Homo sapiens, UniProt P09619)
T4 construct: purchased Carna Biosciences

[5] = molecular target: T5, PKCβ2 (Homo sapiens, UniProt P05771)
T5 construct: purchased Carna Biosciences

[6] = molecular target: T6, IKKε (Homo sapiens, UniProt Q14164)
T6 construct: purchased Carna Biosciences
T6 sequence (Q14164 1-716): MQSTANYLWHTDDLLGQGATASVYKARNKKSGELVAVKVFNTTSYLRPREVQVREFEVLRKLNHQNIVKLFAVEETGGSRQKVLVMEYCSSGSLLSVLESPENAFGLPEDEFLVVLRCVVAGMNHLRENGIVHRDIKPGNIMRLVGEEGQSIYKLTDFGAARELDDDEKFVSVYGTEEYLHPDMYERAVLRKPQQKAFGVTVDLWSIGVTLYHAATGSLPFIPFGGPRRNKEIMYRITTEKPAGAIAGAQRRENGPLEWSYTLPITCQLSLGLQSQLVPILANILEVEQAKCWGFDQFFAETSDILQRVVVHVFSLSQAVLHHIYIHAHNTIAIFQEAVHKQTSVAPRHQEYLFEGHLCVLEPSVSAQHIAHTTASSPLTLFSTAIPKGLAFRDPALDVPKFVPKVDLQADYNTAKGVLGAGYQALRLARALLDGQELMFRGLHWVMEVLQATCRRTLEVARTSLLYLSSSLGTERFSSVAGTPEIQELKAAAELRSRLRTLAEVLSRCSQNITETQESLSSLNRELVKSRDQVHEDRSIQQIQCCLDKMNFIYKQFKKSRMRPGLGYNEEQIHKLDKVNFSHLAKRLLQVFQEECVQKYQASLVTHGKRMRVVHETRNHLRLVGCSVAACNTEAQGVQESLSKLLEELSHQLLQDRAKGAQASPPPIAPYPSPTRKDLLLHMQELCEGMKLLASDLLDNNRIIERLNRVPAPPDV

[7] = molecular target: T7, MINK (Homo sapiens, UniProt Q8N4C8)
T7 construct: purchased Carna Biosciences
T7 sequence (Q8N4C8 whole entry): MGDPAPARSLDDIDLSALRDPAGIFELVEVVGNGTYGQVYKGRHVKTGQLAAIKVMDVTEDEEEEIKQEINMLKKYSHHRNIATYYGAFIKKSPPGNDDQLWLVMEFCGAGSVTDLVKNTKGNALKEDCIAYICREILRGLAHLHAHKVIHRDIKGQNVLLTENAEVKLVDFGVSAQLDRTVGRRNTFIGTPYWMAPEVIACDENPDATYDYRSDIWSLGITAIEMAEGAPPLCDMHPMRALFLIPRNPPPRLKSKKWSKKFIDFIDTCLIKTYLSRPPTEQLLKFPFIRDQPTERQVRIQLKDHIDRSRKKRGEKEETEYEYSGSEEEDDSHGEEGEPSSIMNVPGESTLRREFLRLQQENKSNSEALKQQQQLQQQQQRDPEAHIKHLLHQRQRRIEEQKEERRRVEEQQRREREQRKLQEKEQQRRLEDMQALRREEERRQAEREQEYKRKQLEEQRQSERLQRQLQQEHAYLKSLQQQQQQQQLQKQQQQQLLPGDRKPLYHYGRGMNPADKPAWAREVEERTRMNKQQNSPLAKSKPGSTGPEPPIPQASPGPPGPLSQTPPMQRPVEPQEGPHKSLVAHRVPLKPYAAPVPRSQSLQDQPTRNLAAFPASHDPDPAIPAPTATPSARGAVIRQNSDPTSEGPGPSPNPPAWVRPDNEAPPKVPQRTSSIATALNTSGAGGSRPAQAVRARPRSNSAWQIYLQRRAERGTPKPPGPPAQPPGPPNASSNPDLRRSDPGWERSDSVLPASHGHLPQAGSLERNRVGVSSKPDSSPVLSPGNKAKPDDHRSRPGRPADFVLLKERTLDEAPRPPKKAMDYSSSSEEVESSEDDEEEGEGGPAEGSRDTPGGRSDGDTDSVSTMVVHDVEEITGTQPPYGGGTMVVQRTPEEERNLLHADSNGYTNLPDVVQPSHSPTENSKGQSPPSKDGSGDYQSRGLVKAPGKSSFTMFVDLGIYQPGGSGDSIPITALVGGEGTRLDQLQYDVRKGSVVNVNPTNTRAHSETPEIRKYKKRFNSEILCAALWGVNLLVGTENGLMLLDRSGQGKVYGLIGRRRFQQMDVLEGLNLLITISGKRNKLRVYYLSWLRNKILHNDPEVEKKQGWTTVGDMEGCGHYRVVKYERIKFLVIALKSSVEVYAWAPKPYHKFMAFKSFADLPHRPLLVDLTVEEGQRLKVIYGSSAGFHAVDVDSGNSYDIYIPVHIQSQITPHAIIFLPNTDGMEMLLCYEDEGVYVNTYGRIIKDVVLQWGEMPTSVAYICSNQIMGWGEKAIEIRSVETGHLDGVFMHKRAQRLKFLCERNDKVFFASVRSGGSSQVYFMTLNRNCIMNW

[8] = molecular target: T8, CK1ε (Homo sapiens, UniProt P49674)
T8 construct: purchased Carna Biosciences

[9] = molecular target: T9, TIE2 (Homo sapiens, UniProt Q02763)
T9 construct: purchased Carna Biosciences
T9 sequence (Q02763 23-1124): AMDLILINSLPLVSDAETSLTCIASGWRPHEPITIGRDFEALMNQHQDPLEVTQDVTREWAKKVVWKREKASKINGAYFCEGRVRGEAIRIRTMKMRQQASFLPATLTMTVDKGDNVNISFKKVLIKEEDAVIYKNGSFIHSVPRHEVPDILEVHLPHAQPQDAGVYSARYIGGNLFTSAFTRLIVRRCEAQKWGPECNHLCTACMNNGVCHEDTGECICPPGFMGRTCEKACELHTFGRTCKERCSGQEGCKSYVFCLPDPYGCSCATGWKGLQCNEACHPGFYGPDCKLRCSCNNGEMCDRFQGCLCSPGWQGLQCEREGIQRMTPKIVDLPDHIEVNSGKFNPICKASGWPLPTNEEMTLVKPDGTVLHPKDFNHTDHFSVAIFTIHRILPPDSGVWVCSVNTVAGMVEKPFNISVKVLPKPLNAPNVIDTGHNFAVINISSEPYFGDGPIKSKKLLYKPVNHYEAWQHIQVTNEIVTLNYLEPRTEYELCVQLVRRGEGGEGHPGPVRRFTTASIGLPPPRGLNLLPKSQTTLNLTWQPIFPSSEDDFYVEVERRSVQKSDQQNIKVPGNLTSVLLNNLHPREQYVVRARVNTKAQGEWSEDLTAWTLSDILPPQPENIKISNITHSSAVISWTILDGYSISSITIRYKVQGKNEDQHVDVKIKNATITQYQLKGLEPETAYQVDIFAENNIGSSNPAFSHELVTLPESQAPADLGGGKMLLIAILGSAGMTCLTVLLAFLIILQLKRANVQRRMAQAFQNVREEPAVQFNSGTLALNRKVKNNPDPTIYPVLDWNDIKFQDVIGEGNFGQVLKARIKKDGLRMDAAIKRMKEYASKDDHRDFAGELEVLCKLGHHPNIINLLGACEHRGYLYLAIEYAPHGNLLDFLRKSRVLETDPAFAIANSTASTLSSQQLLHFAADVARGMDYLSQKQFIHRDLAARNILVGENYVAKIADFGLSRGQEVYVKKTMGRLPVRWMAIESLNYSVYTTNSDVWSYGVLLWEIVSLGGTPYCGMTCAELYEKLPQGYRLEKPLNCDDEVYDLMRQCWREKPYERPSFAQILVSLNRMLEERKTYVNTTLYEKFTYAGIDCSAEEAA

[10] = molecular target: T10, WNK3 (Homo sapiens, UniProt Q9BYP7)
T10 construct: purchased Carna Biosciences

[11] = molecular target: T11, CK1δ (Homo sapiens, UniProt P48730)
T11 construct: purchased Carna Biosciences

[12] = molecular target: T12, EPHA2 (Homo sapiens, UniProt P29317)
T12 construct: purchased Carna Biosciences
T12 sequence (P29317 24-976): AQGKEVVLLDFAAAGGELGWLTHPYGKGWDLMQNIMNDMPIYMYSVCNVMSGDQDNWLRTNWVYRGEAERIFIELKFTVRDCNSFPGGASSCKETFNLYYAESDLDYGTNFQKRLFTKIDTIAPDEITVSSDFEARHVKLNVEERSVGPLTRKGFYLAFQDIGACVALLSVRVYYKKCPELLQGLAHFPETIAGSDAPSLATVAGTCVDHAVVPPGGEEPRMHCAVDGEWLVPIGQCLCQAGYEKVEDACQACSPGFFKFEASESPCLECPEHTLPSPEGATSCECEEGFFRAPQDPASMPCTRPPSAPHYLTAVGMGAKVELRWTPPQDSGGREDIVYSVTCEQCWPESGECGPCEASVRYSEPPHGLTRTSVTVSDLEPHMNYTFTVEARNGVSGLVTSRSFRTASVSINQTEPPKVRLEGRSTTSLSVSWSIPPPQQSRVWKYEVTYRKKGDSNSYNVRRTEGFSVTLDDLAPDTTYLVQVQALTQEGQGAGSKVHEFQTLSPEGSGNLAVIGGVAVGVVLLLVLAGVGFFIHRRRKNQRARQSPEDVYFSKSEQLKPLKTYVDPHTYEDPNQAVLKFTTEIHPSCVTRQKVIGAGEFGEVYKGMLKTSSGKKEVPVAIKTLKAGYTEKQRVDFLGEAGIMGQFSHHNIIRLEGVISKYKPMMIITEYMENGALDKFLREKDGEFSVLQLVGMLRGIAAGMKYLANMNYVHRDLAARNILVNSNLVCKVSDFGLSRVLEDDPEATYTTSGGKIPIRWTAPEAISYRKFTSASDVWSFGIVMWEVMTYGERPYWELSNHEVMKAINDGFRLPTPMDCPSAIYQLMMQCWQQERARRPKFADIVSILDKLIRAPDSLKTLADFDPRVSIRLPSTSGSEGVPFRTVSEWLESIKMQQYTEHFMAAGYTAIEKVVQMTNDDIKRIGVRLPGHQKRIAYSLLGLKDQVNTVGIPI

[13] = molecular target: T13, RSK3 (Homo sapiens, UniProt Q15349)
T13 construct: purchased Carna Biosciences

[14] = molecular target: T14, GSK3α (Homo sapiens, UniProt P49840)
T14 construct: purchased Carna Biosciences
T14 sequence (P49840 whole entry): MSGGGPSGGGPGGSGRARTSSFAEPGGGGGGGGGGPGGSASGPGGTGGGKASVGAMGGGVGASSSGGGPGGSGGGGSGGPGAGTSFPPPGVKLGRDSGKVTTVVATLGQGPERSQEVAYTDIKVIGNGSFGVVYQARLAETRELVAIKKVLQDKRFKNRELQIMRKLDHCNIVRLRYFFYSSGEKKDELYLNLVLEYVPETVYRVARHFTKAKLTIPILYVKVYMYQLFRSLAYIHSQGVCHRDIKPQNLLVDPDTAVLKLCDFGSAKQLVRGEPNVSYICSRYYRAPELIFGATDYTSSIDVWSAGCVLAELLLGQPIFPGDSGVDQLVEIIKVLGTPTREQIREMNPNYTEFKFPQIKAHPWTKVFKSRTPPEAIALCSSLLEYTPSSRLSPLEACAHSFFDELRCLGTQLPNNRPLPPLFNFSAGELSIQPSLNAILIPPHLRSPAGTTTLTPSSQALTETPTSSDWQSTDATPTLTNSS

[15] = molecular target: T15, HGK (Homo sapiens, UniProt O95819)
T15 construct: purchased Carna Biosciences
T15 sequence (O95819 whole entry): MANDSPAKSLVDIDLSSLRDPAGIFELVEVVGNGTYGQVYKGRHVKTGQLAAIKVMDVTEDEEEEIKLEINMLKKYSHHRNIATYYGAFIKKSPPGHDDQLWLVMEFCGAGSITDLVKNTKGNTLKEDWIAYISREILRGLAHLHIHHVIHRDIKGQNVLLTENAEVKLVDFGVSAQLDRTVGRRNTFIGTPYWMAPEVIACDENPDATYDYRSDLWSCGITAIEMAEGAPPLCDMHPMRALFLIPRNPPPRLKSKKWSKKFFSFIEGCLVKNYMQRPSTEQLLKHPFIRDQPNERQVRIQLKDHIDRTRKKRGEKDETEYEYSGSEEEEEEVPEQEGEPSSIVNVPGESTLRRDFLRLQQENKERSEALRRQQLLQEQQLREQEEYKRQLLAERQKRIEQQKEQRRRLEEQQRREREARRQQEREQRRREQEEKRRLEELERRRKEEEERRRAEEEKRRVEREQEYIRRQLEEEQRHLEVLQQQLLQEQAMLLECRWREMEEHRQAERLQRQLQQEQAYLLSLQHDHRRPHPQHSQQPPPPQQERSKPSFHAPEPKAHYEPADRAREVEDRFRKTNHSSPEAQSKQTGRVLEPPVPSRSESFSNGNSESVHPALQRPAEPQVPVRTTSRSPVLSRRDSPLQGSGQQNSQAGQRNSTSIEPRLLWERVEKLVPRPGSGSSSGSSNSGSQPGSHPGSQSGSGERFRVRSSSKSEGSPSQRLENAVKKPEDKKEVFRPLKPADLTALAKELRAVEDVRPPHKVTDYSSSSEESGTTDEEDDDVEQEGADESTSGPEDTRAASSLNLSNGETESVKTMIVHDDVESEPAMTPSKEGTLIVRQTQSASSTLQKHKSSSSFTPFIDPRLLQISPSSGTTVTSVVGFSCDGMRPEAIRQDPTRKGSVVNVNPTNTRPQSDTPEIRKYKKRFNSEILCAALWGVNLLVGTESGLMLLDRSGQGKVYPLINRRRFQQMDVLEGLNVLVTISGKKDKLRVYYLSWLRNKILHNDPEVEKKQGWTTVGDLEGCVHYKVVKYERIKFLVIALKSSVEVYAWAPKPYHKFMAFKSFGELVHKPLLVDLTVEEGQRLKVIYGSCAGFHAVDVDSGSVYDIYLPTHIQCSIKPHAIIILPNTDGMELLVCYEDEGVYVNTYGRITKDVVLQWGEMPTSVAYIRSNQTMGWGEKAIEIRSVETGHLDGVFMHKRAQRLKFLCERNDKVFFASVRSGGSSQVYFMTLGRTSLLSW

Structure (SMILES) | Percentage inhibition of kinase enzyme activity [1] | Percentage inhibition of kinase enzyme activity [2] | Percentage inhibition of kinase enzyme activity [3] | Percentage inhibition of kinase enzyme activity [4] | Percentage inhibition of kinase enzyme activity [5] | Percentage inhibition of kinase enzyme activity [6] | Percentage inhibition of kinase enzyme activity [7] | Percentage inhibition of kinase enzyme activity [8] | Percentage inhibition of kinase enzyme activity [9] | Percentage inhibition of kinase enzyme activity [10] | Percentage inhibition of kinase enzyme activity [11] | Percentage inhibition of kinase enzyme activity [12] | Percentage inhibition of kinase enzyme activity [13] | Percentage inhibition of kinase enzyme activity [14] | Percentage inhibition of kinase enzyme activity [15]
CC#CC(=O)N1CCC[C@H]1c1nc(-c2ccc(C(=O)Nc3ccccn3)cc2)c2c(N)nccn12 [acalabrutinib] | -9.54% | 6.23% | 0.47% | 5.36% | -12.04% | 1.46% | -1.13% | -10.49% | -5.36% | -0.26% | 2.76% | -3.60% | 1.13% | 2.47% | -1.42%
C=CC(=O)N1CCC[C@@H](n2nc(-c3ccc(Oc4ccccc4)cc3)c3c(N)ncnc32)C1 [ibrutinib] | 2.60% | 17.34% | 7.45% | 54.81% | 1.78% | -0.70% | -6.41% | 49.55% | 29.04% | 6.84% | 7.46% | 6.83% | 8.80% | 2.24% | -0.0249%
O=C(c1ccc(Oc2ccccc2)cc1Cl)c1c[nH]c2ncnc(N[C@@H]3CC[C@@H](CO)OC3)c12 [nemtabrutinib] | 13.77% | 93.92% | 99.20% | 76.83% | -1.79% | 11.64% | 46.67% | 95.45% | 99.74% | 52.96% | 25.76% | 33.13% | 19.54% | -3.85% | 72.78%
COc1ccc(F)cc1C(=O)NCc1ccc(-c2nn([C@@H](C)C(F)(F)F)c(N)c2C(N)=O)cc1 [pirtobrutinib] | 2.58% | 9.58% | 0.28% | 5.87% | -8.67% | 5.28% | -0.79% | 15.87% | -3.49% | 2.54% | 6.20% | 4.53% | 1.65% | -5.30% | 3.60%
C=CC(=O)N1CCC([C@@H]2CCNc3c(C(N)=O)c(-c4ccc(Oc5ccccc5)cc4)nn32)CC1 [zanubrutinib] |  |  | 4.03% | 5.37% | -1.66% |  |  |  |  |  |  | -0.10% |  |  | 
